Experimental data published in BigSolDB 2.1.

O=CC(NS(=O)(=O)[O-])C(O)C(O)C(O)CO.[Na+] (stereo unspecified)
solubility (mole fraction)
Details | 288.15 K | 293.15 K | 298.15 K | 303.15 K | 308.15 K | 313.15 K | 318.15 K
in ethanol | 8e-05 | 0.00012 | 0.00021 | 0.00027 | 0.00035 | 0.00046 | 0.00055
in methanol | 0.0004 | 0.00046 | 0.00052 | 0.00058 | 0.00064 | 0.0007 | 0.00076
in water | 0.0315 | 0.0345 | 0.0388 | 0.0444 | 0.0514 | 0.0601 | 0.0727
